Laboratory results published in PubChem BioAssay AID2060504 (Molecular Pharmacology Branch, DTP, NCI, 2025).

System: 636577-100-R-J1-PDC complex spheroid viability
Assay: Anticancer human tumor 636577-100-R-J1-PDC patient-derived endometrial adenocarcinoma cell line growth inhibition [GQUAD]
Settings: for IC50: curve of first compound; for viability, T/C: stronger effect = lower value
Procedure, shortened: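 Viability of tumor cells grown as complex spheroids with endothelial and stromal cells, exposed to drug combinations. Top concentration at or near clinical Cmax (else 10 microM), diluted in half-log increments.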

[1] = second compound 0.0316 µM, first compound 0.0316 µM
[2] = second compound 0.0316 µM, first compound 0.1 µM
[3] = second compound 0.0316 µM, first compound 0.316 µM
[4] = second compound 0.0316 µM, first compound 1 µM
[5] = second compound 0.0316 µM, first compound 3.16 µM
[6] = second compound 0.0316 µM, first compound 10 µM
[7] = second compound 0.1 µM, first compound 0.0316 µM
[8] = second compound 0.1 µM, first compound 0.1 µM
[9] = second compound 0.1 µM, first compound 0.316 µM
[10] = second compound 0.1 µM, first compound 1 µM
[11] = second compound 0.1 µM, first compound 3.16 µM
[12] = second compound 0.1 µM, first compound 10 µM
[13] = second compound 0.316 µM, first compound 0.0316 µM
[14] = second compound 0.316 µM, first compound 0.1 µM
[15] = second compound 0.316 µM, first compound 0.316 µM
[16] = second compound 0.316 µM, first compound 1 µM
[17] = second compound 0.316 µM, first compound 3.16 µM
[18] = second compound 0.316 µM, first compound 10 µM
[19] = second compound 1 µM, first compound 0.0316 µM
[20] = second compound 1 µM, first compound 0.1 µM
[21] = second compound 1 µM, first compound 0.316 µM
[22] = second compound 1 µM, first compound 1 µM
[23] = second compound 1 µM, first compound 3.16 µM
[24] = second compound 1 µM, first compound 10 µM
[25] = second compound 3.16 µM, first compound 0.0316 µM
[26] = second compound 3.16 µM, first compound 0.1 µM
[27] = second compound 3.16 µM, first compound 0.316 µM
[28] = second compound 3.16 µM, first compound 1 µM
[29] = second compound 3.16 µM, first compound 3.16 µM
[30] = second compound 3.16 µM, first compound 10 µM
[31] = second compound 10 µM, first compound 0.0316 µM
[32] = second compound 10 µM, first compound 0.1 µM
[33] = second compound 10 µM, first compound 0.316 µM
[34] = second compound 10 µM, first compound 1 µM
[35] = second compound 10 µM, first compound 3.16 µM
[36] = second compound 10 µM, first compound 10 µM
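Further: viability read after seven days of drug exposure.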
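Wherever viability, T/C is given: luminescence signal used as a proxy for viable cells; 100% = DMSO vehicle control wells.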

## COc1cccc2c1C(=O)c1c(O)c3c(c(O)c1C2=O)CC(O)(C(=O)CO)CC3OC1CC(N)C(O)C(C)O1 (stereo not given) + CN(C)c1ccc(Nc2c3ccc(NC(=O)CCN4CCCC4)cc3nc3cc(NC(=O)CCN4CCCC4)ccc23)cc1
Second compound 0.0316 µM
  IC50: < 31.6 nM
Second compound 0.1 µM
  IC50: < 31.6 nM
Second compound 0.316 µM
  IC50: < 31.6 nM
Second compound 1 µM
  IC50: < 31.6 nM
Second compound 3.16 µM
  IC50: < 31.6 nM
Second compound 10 µM
  IC50: < 31.6 nM
[1]
  viability, T/C: 28%
[2]
  viability, T/C: 17.2%
[3]
  viability, T/C: 15.3%
[4]
  viability, T/C: 7.48%
[5]
  viability, T/C: 0.17%
[6]
  viability, T/C: 0.58%
[7]
  viability, T/C: 27.2%
[8]
  viability, T/C: 15.9%
[9]
  viability, T/C: 15.3%
[10]
  viability, T/C: 7.46%
[11]
  viability, T/C: 0.12%
[12]
  viability, T/C: 0.61%
[13]
  viability, T/C: 28%
[14]
  viability, T/C: 18.6%
[15]
  viability, T/C: 12.9%
[16]
  viability, T/C: 7.67%
[17]
  viability, T/C: 0.2%
[18]
  viability, T/C: 0.5%
[19]
  viability, T/C: 25%
[20]
  viability, T/C: 18.6%
[21]
  viability, T/C: 13.3%
[22]
  viability, T/C: 7.58%
[23]
  viability, T/C: 0.13%
[24]
  viability, T/C: 0.47%
[25]
  viability, T/C: 19.4%
[26]
  viability, T/C: 17.2%
[27]
  viability, T/C: 10.8%
[28]
  viability, T/C: 3.65%
[29]
  viability, T/C: 0.16%
[30]
  viability, T/C: 0.34%
[31]
  viability, T/C: 4.99%
[32]
  viability, T/C: 3.27%
[33]
  viability, T/C: 1.84%
[34]
  viability, T/C: 0.34%
[35]
  viability, T/C: 0.19%
[36]
  viability, T/C: 0.27%

## CC1COCCN1c1cc(-c2ccnn2C)c2ccnc(-c3ccn[nH]3)c2n1 (stereo not given) + CN(C)c1ccc(Nc2c3ccc(NC(=O)CCN4CCCC4)cc3nc3cc(NC(=O)CCN4CCCC4)ccc23)cc1
Second compound 0.0316 µM
  IC50: 66.9 nM
Second compound 0.1 µM
  IC50: 63.7 nM
Second compound 0.316 µM
  IC50: 53.3 nM
Second compound 1 µM
  IC50: 32 nM
Second compound 3.16 µM
  IC50: < 31.6 nM
Second compound 10 µM
  IC50: < 31.6 nM
[1]
  viability, T/C: 70%
[2]
  viability, T/C: 39%
[3]
  viability, T/C: 21.6%
[4]
  viability, T/C: 13.2%
[5]
  viability, T/C: 7.12%
[6]
  viability, T/C: 3.43%
[7]
  viability, T/C: 67.8%
[8]
  viability, T/C: 36.9%
[9]
  viability, T/C: 23.4%
[10]
  viability, T/C: 13.1%
[11]
  viability, T/C: 5.95%
[12]
  viability, T/C: 2.75%
[13]
  viability, T/C: 62.1%
[14]
  viability, T/C: 34.5%
[15]
  viability, T/C: 21.6%
[16]
  viability, T/C: 13.4%
[17]
  viability, T/C: 5%
[18]
  viability, T/C: 3.28%
[19]
  viability, T/C: 52%
[20]
  viability, T/C: 27.8%
[21]
  viability, T/C: 22.7%
[22]
  viability, T/C: 14%
[23]
  viability, T/C: 7.85%
[24]
  viability, T/C: 3.23%
[25]
  viability, T/C: 30.8%
[26]
  viability, T/C: 24.2%
[27]
  viability, T/C: 19.4%
[28]
  viability, T/C: 11.3%
[29]
  viability, T/C: 5.18%
[30]
  viability, T/C: 2.8%
[31]
  viability, T/C: 4.8%
[32]
  viability, T/C: 3.22%
[33]
  viability, T/C: 2.72%
[34]
  viability, T/C: 2.01%
[35]
  viability, T/C: 1.02%
[36]
  viability, T/C: 0.62%

## CCCS(=O)(=O)Nc1ccc(F)c(C(=O)c2c[nH]c3ncc(-c4ccc(Cl)cc4)cc23)c1F + Cc1[nH]c2ccc(F)cc2c1-c1nc2c3cccnc3c3ncccc3c2[nH]1
Second compound 0.0316 µM
  IC50: > 10000 nM
Second compound 0.1 µM
  IC50: 5370 nM
Second compound 0.316 µM
  IC50: 7080 nM
Second compound 1 µM
  IC50: 7150 nM
Second compound 3.16 µM
  IC50: < 31.6 nM
Second compound 10 µM
  IC50: < 31.6 nM
[1]
  viability, T/C: 98.2%
[2]
  viability, T/C: 87.4%
[3]
  viability, T/C: 116%
[4]
  viability, T/C: 56.9%
[5]
  viability, T/C: 73.5%
[6]
  viability, T/C: 43.6%
[7]
  viability, T/C: 101%
[8]
  viability, T/C: 69.4%
[9]
  viability, T/C: 104%
[10]
  viability, T/C: 58.7%
[11]
  viability, T/C: 66.3%
[12]
  viability, T/C: 37.3%
[13]
  viability, T/C: 94.2%
[14]
  viability, T/C: 79.6%
[15]
  viability, T/C: 81.2%
[16]
  viability, T/C: 89.6%
[17]
  viability, T/C: 80.4%
[18]
  viability, T/C: 36.7%
[19]
  viability, T/C: 87.4%
[20]
  viability, T/C: 83.1%
[21]
  viability, T/C: 63.9%
[22]
  viability, T/C: 82.9%
[23]
  viability, T/C: 69.4%
[24]
  viability, T/C: 41.6%
[25]
  viability, T/C: 28%
[26]
  viability, T/C: 25.4%
[27]
  viability, T/C: 31.2%
[28]
  viability, T/C: 32.5%
[29]
  viability, T/C: 31.9%
[30]
  viability, T/C: 20.4%
[31]
  viability, T/C: 40.2%
[32]
  viability, T/C: 49.2%
[33]
  viability, T/C: 48.7%
[34]
  viability, T/C: 45.1%
[35]
  viability, T/C: 43.5%
[36]
  viability, T/C: 28.3%

## Nc1ccn(C2OC(CO)C(O)C2(F)F)c(=O)n1 (stereo not given) + CN(C)c1ccc(Nc2c3ccc(NC(=O)CCN4CCCC4)cc3nc3cc(NC(=O)CCN4CCCC4)ccc23)cc1
Second compound 0.0316 µM
  IC50: < 31.6 nM
Second compound 0.1 µM
  IC50: < 31.6 nM
Second compound 0.316 µM
  IC50: < 31.6 nM
Second compound 1 µM
  IC50: < 31.6 nM
Second compound 3.16 µM
  IC50: < 31.6 nM
Second compound 10 µM
  IC50: < 31.6 nM
[1]
  viability, T/C: 17.7%
[2]
  viability, T/C: 13.4%
[3]
  viability, T/C: 14.6%
[4]
  viability, T/C: 17.2%
[5]
  viability, T/C: 16.4%
[6]
  viability, T/C: 15.8%
[7]
  viability, T/C: 17.7%
[8]
  viability, T/C: 14.2%
[9]
  viability, T/C: 14.9%
[10]
  viability, T/C: 14.3%
[11]
  viability, T/C: 14.5%
[12]
  viability, T/C: 18.5%
[13]
  viability, T/C: 16.9%
[14]
  viability, T/C: 11.2%
[15]
  viability, T/C: 14.2%
[16]
  viability, T/C: 17.4%
[17]
  viability, T/C: 16.4%
[18]
  viability, T/C: 15.6%
[19]
  viability, T/C: 15.9%
[20]
  viability, T/C: 16.7%
[21]
  viability, T/C: 15.2%
[22]
  viability, T/C: 17.8%
[23]
  viability, T/C: 16.5%
[24]
  viability, T/C: 17.1%
[25]
  viability, T/C: 16.6%
[26]
  viability, T/C: 13.9%
[27]
  viability, T/C: 15.2%
[28]
  viability, T/C: 14.8%
[29]
  viability, T/C: 16.3%
[30]
  viability, T/C: 14.5%
[31]
  viability, T/C: 3.38%
[32]
  viability, T/C: 3.05%
[33]
  viability, T/C: 4%
[34]
  viability, T/C: 3.42%
[35]
  viability, T/C: 3.65%
[36]
  viability, T/C: 3.14%

## COc1ncnc(C2CC2)c1-c1ncc2cnn(Cc3ccc(-c4nc(C(F)(F)F)cn4C(C)C)cc3)c2n1 + Cc1[nH]c2ccc(F)cc2c1-c1nc2c3cccnc3c3ncccc3c2[nH]1
Second compound 0.0316 µM
  IC50: > 10000 nM
Second compound 0.1 µM
  IC50: > 10000 nM
Second compound 0.316 µM
  IC50: > 10000 nM
Second compound 1 µM
  IC50: > 10000 nM
Second compound 3.16 µM
  IC50: < 31.6 nM
Second compound 10 µM
  IC50: < 31.6 nM
[1]
  viability, T/C: 86.6%
[2]
  viability, T/C: 67.6%
[3]
  viability, T/C: 77.3%
[4]
  viability, T/C: 57.8%
[5]
  viability, T/C: 66.7%
[6]
  viability, T/C: 75.3%
[7]
  viability, T/C: 74.8%
[8]
  viability, T/C: 57.1%
[9]
  viability, T/C: 87%
[10]
  viability, T/C: 54.6%
[11]
  viability, T/C: 79.9%
[12]
  viability, T/C: 67.6%
[13]
  viability, T/C: 63.8%
[14]
  viability, T/C: 60.6%
[15]
  viability, T/C: 62.8%
[16]
  viability, T/C: 64.5%
[17]
  viability, T/C: 77.3%
[18]
  viability, T/C: 66.6%
[19]
  viability, T/C: 57.8%
[20]
  viability, T/C: 59%
[21]
  viability, T/C: 60.1%
[22]
  viability, T/C: 50.2%
[23]
  viability, T/C: 50.1%
[24]
  viability, T/C: 57.4%
[25]
  viability, T/C: 20.8%
[26]
  viability, T/C: 27.6%
[27]
  viability, T/C: 22.6%
[28]
  viability, T/C: 28.4%
[29]
  viability, T/C: 27.5%
[30]
  viability, T/C: 26.1%
[31]
  viability, T/C: 28.9%
[32]
  viability, T/C: 29.5%
[33]
  viability, T/C: 26.4%
[34]
  viability, T/C: 27.1%
[35]
  viability, T/C: 32.1%
[36]
  viability, T/C: 32.6%
